{"source": "patent US11679114B2", "about": "“Progestogen-only oral contraception” (Navad Life Sciences Pte, priority 2021, dated 2023)", "type_in_all_cases": "in vivo, human", "key": {"[1]": {"system": "healthy, cyclic women", "test": "Vaginal bleeding pattern (daily record)", "conditions": "excluding the first 7 treatment days", "procedure": "(§1) The tablets prepared in Example 1 were tested in a single-center, open-label, adaptive design study to evaluate the influence on hormonal and ovarian function and vaginal bleeding pattern of different higher dosages of LNG administered once daily for 28 days over two consecutive treatment cycles in healthy, cyclic women.\nThroughout the study, subjects kept a daily record of vaginal bleeding. During the treatment period, they also documented the time of study medication intake."}, "[2]": {"system": "healthy, cyclic women", "test": "Diameter of the largest follicle-like structure (FLS) by transvaginal ultrasonography", "procedure": "as §1\nSubjects started study medication intake on the first day of menstrual bleeding after the pre-treatment cycle. One tablet was taken orally, around the same time every morning, during 56 consecutive days. Study visits were planned every three (±1) days from treatment day 3 (±1) until 27 (±1) and from day 31 (±1) until day 55 (±1). At each visit the diameter of the largest follicle-like structure (FLS) and serum follicle-stimulating hormone (FSH), luteinizing hormone (LH), estradiol (E2) and P concentrations were measured.\nIf ovulation was observed during treatment, the subsequent luteal phase was evaluated using the Landgren criterion, i.e. the luteal phase was considered adequate when P concentrations were >16 nmol/L during at least 5 days (Landgren et al., “Hormonal effects of the 300 μg norethisterone (NET) minipill. 1. Daily steroid levels in 43 subjects during a pretreatment cycle and during the second month of NET administration,” Contraception 1980; 21: pp. 87-113). TVUS measurements of the diameter of the largest FLS (mean of two directions) were performed using a Voluson E8 Expert device (GE Medical Systems). Serum FSH, LH, E2, P and SHBG concentrations were determined by validated chemiluminescent microparticle immunoassays (Abbott, Longford, Ireland). All pharmacodynamic parameters were evaluated descriptively."}, "[3]": {"test": "Multiple-dose pharmacokinetics, plasma LNG concentrations on treatment day 55 (±1)", "conditions": "entire treatment group", "procedure": "Serum SHBG concentrations were determined after ovulation in the pre-treatment cycle, on treatment day 55 (±1) and at the end-of-study examination. Multiple-dose PK parameters were investigated in approximately 15 subjects per dose group, 5 of them having a BMI≥30 kg/m^2. Blood samples for LNG determination were taken on treatment day 55 (±1) pre-dose and 0.5, 1, 2, 3, 4, 6 and 24 hours after dosing.\nPlasma LNG concentrations were determined by a validated liquid chromatography hyphenated with tandem mass spectrometry method (ACC, Leidersbach, Germany). PK parameters were derived by means of non-compartmental analysis. Analysis of Variance (ANOVA) was used as basis for the calculation of 90% confidence intervals; point estimates and confidence intervals for area under the curve (AUC) and maximum concentration (Cmax) values and comparison of treatments which were calculated by parametric analysis. Descriptive statistics for each treatment group and for subgroups with BMI<30 and ≥30 kg/m^2 were calculated."}, "[4]": {"conditions": "LNG 0.095 mg per day, entire treatment period"}, "[5]": {"conditions": "LNG 0.095 mg per day, treatment period 1"}, "[6]": {"conditions": "LNG 0.095 mg per day, treatment period 2"}, "[7]": {"conditions": "LNG 0.115 mg per day, entire treatment period"}, "[8]": {"conditions": "LNG 0.115 mg per day, treatment period 1"}, "[9]": {"conditions": "LNG 0.115 mg per day, treatment period 2"}, "[10]": {"conditions": "LNG 0.135 mg per day, entire treatment period"}, "[11]": {"conditions": "LNG 0.135 mg per day, treatment period 1"}, "[12]": {"conditions": "LNG 0.135 mg per day, treatment period 2"}, "[13]": {"conditions": "0.095 mg per day oral over 55 ± 1 consecutive days"}, "[14]": {"conditions": "0.115 mg per day oral over 55 ± 1 consecutive days"}}, "data": [{"smiles": "C#C[C@]1(O)CC[C@H]2[C@@H]3CCC4=CC(=O)CC[C@@H]4[C@H]3CC[C@@]21CC", "note": "(racemic) [LNG, levonorgestrel]", "values": [{"measurement": "Number of days with bleeding or spotting during treatment, mean (±SD)", "setting": "[1]; LNG 0.095 mg per day", "value": "12.3 (±8.6) days"}, {"measurement": "Number of days with bleeding or spotting during treatment, median", "setting": "[1]; LNG 0.095 mg per day", "value": 11.5, "unit": "days"}, {"measurement": "Number of days with bleeding or spotting during treatment, mean (±SD)", "setting": "[1]; LNG 0.115 mg per day", "value": "14.5 (±9.4) days"}, {"measurement": "Number of days with bleeding or spotting during treatment, median", "setting": "[1]; LNG 0.115 mg per day", "value": 14.5, "unit": "days"}, {"measurement": "Number of days with bleeding or spotting during treatment, mean (±SD)", "setting": "[1]; LNG 0.135 mg per day", "value": "16.0 (±11.5) days"}, {"measurement": "Number of days with bleeding or spotting during treatment, median", "setting": "[1]; LNG 0.135 mg per day", "value": 13.0, "unit": "days"}, {"measurement": "Maximum FLS diameter, Mean ± SD", "setting": "[2]; LNG 0.095 mg per day, BMI < 30 kg/m^2, entire treatment period", "value": "22.5 ± 8.2", "unit": "mm"}, {"measurement": "Maximum FLS diameter, Mean ± SD", "setting": "[2]; LNG 0.095 mg per day, BMI ≥ 30 kg/m^2, entire treatment period", "value": "20.6 ± 6.9", "unit": "mm"}, {"measurement": "Maximum FLS diameter, Mean ± SD", "setting": "[2]; [4]", "value": "22.1 ± 7.9", "unit": "mm"}, {"measurement": "Maximum FLS diameter, Median", "setting": "[2]; [4]", "value": 22.5, "unit": "mm"}, {"measurement": "Maximum FLS diameter, Mean ± SD", "setting": "[2]; [5]", "value": "20.0 ± 8.6", "unit": "mm"}, {"measurement": "Maximum FLS diameter, Median", "setting": "[2]; [5]", "value": 20.6, "unit": "mm"}, {"measurement": "Maximum FLS diameter, Mean ± SD", "setting": "[2]; [6]", "value": "20.5 ± 7.5", "unit": "mm"}, {"measurement": "Maximum FLS diameter, Median", "setting": "[2]; [6]", "value": 20.2, "unit": "mm"}, {"measurement": "Maximum FLS diameter, Mean ± SD", "setting": "[2]; LNG 0.115 mg per day, BMI < 30 kg/m^2, entire treatment period", "value": "19.8 ± 7.5", "unit": "mm"}, {"measurement": "Maximum FLS diameter, Mean ± SD", "setting": "[2]; LNG 0.115 mg per day, BMI ≥ 30 kg/m^2, entire treatment period", "value": "27.9 ± 4.4", "unit": "mm"}, {"measurement": "Maximum FLS diameter, Mean ± SD", "setting": "[2]; [7]", "value": "21.4 ± 7.7", "unit": "mm"}, {"measurement": "Maximum FLS diameter, Median", "setting": "[2]; [7]", "value": 20.8, "unit": "mm"}, {"measurement": "Maximum FLS diameter, Mean ± SD", "setting": "[2]; [8]", "value": "20.4 ± 7.9", "unit": "mm"}, {"measurement": "Maximum FLS diameter, Median", "setting": "[2]; [8]", "value": 20.3, "unit": "mm"}, {"measurement": "Maximum FLS diameter, Mean ± SD", "setting": "[2]; [9]", "value": "19.9 ± 7.5", "unit": "mm"}, {"measurement": "Maximum FLS diameter, Median", "setting": "[2]; [9]", "value": 20.8, "unit": "mm"}, {"measurement": "Maximum FLS diameter, Mean ± SD", "setting": "[2]; LNG 0.135 mg per day, BMI < 30 kg/m^2, entire treatment period", "value": "18.4 ± 5.0", "unit": "mm"}, {"measurement": "Maximum FLS diameter, Mean ± SD", "setting": "[2]; LNG 0.135 mg per day, BMI ≥ 30 kg/m^2, entire treatment period", "value": "19.0 ± 7.1", "unit": "mm"}, {"measurement": "Maximum FLS diameter, Mean ± SD", "setting": "[2]; [10]", "value": "18.5 ± 5.3", "unit": "mm"}, {"measurement": "Maximum FLS diameter, Median", "setting": "[2]; [10]", "value": 18.1, "unit": "mm"}, {"measurement": "FLS diameter in one subject with possible abnormal ovulation", "setting": "[2]; LNG 0.135 mg per day, one subject (BMI 20.4 kg/m^2), treatment day 3", "value": 12.3, "unit": "mm"}, {"measurement": "Maximum FLS diameter, Mean ± SD", "setting": "[2]; [11]", "value": "16.6 ± 5.7", "unit": "mm"}, {"measurement": "Maximum FLS diameter, Median", "setting": "[2]; [11]", "value": 13.9, "unit": "mm"}, {"measurement": "Maximum FLS diameter, Mean ± SD", "setting": "[2]; [12]", "value": "17.4 ± 5.0", "unit": "mm"}, {"measurement": "Maximum FLS diameter, Median", "setting": "[2]; [12]", "value": 16.8, "unit": "mm"}, {"measurement": "AUC0-24, ss, Max", "setting": "[3]; [13]", "value": 23.2, "unit": "ng·h/mL"}, {"measurement": "AUC0-24, ss, Min", "setting": "[3]; [13]", "value": 7.29, "unit": "ng·h/mL"}, {"measurement": "Cmax, ss, Max", "setting": "[3]; [13]", "value": 3.12, "unit": "ng/mL"}, {"measurement": "Cmax, ss, Min", "setting": "[3]; [13]", "value": 0.903, "unit": "ng/mL"}, {"measurement": "AUC0-24, ss, Max", "setting": "[3]; [14]", "value": 26.1, "unit": "ng·h/mL"}, {"measurement": "AUC0-24, ss, Min", "setting": "[3]; [14]", "value": 5.58, "unit": "ng·h/mL"}, {"measurement": "Cmax, ss, Max", "setting": "[3]; [14]", "value": 2.83, "unit": "ng/mL"}, {"measurement": "Cmax, ss, Min", "setting": "[3]; [14]", "value": 0.73, "unit": "ng/mL"}]}]}
